Among the data in PubChem BioAssay AID248 (DTP/NCI, 2004) are T/C values, retold here.

The test system of this experiment is L1210 leukemia ip in BDF1 mice, survival T/C. Description: NCI In Vivo Anticancer Drug Screen. Data for tumor model L1210 Leukemia (intraperitoneal) in B6D2F1 (BDF1) mice. Conditions: endpoint: mean survival time, higher = longer survival. The gist of the method: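 In this screen, tumor-bearing mice given compound are compared to those given vehicle, and their survival values are reported as a treated-to-control quotient.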

The mark [1] stands for this setting: dose: 100.0 mg/kg/injection, schedule: Q04DX003 (ip), vehicle: Klucel (hydroxypropylcellulose) (HPC).
Setting [2] is: dose: 200.0 mg/kg/injection, schedule: Q04DX003 (ip), vehicle: Klucel (hydroxypropylcellulose) (HPC).
The mark [3] stands for this setting: dose: 400.0 mg/kg/injection, schedule: Q04DX003 (ip), vehicle: Klucel (hydroxypropylcellulose) (HPC).
Where [4] appears, read: dose: 100.0 mg/kg/injection, schedule: Q01DX009 (ip), vehicle: Klucel (hydroxypropylcellulose) (HPC).
[5] abbreviates: dose: 200.0 mg/kg/injection, schedule: Q01DX009 (ip), vehicle: Klucel (hydroxypropylcellulose) (HPC).
The mark [6] stands for this setting: dose: 400.0 mg/kg/injection, schedule: Q01DX009 (ip), vehicle: Klucel (hydroxypropylcellulose) (HPC).
[7] abbreviates: dose: 100.0 mg/kg/injection, schedule: Q04DX002 (ip), vehicle: Klucel (hydroxypropylcellulose) (HPC).
Where [8] appears, read: dose: 200.0 mg/kg/injection, schedule: Q04DX002 (ip), vehicle: Klucel (hydroxypropylcellulose) (HPC).
Where [9] appears, read: dose: 100.0 mg/kg/injection, schedule: Q01DX001 (ip), vehicle: carboxymethylcellulose (CMC).
The mark [10] stands for this setting: dose: 200.0 mg/kg/injection, schedule: Q01DX001 (ip), vehicle: carboxymethylcellulose (CMC).

Where “and” joins values, the source holds several entries; their conditions need not be identical. Equal values may be shown once. Inconclusive results and toxic doses are left out.

On to `Cc1ccc(O)cc1Cl`, for which the T/C is 104 % of control (dose: 100.0 mg/kg/injection, schedule: Q01DX009 (ip), vehicle: saline); 95 % of control (dose: 100.0 mg/kg/injection, schedule: Q04DX003 (ip), vehicle: saline); 101 % of control (dose: 200.0 mg/kg/injection, schedule: Q01DX009 (ip), vehicle: saline); 104 % of control (dose: 200.0 mg/kg/injection, schedule: Q04DX003 (ip), vehicle: saline); 95 % of control (dose: 400.0 mg/kg/injection, schedule: Q01DX009 (ip), vehicle: saline); 96 % of control (dose: 400.0 mg/kg/injection, schedule: Q04DX003 (ip), vehicle: saline).

Turning to `NC(CCCc1ccccc1)C(=O)O` (centres undefined), the T/C (dose: 50.0 mg/kg/injection, schedule: Q04DX003 (ip), vehicle: Klucel (hydroxypropylcellulose) (HPC)) is 98 % of control; the T/C under setting [1] was 96 % of control; the T/C under setting [2] is 88 % of control; the T/C under setting [3] was 94 % of control.

For `COc1ccc(OC)c(NC(=O)Oc2ccc(Cl)cc2C)c1`, the T/C was 97 % of control under setting [1], 98 % of control under setting [2] and 97 % of control under setting [3].

As for `N=C(N)c1cccc(NC(=O)c2ccc(C(=O)Nc3cccc(C(=N)N)c3)c(N)c2)c1`, the T/C runs as follows: (dose: 5.0 mg/kg/injection, schedule: Q01DX Z (ip), vehicle: carboxymethylcellulose (CMC)) 106 % of control; (dose: 10.0 mg/kg/injection, schedule: Q01DX Z (ip), vehicle: carboxymethylcellulose (CMC)) 104 % of control; (dose: 20.0 mg/kg/injection, schedule: Q01DX Z (ip), vehicle: carboxymethylcellulose (CMC)) 120 % of control.

For `NCCCCC(N)C(=O)CCl` (centres undefined), the T/C runs as follows: (dose: 25.0 mg/kg/injection, schedule: Q04DX002 (ip), vehicle: saline) 110 % of control; (dose: 50.0 mg/kg/injection, schedule: Q04DX002 (ip), vehicle: saline) 97 % of control; (dose: 100.0 mg/kg/injection, schedule: Q04DX002 (ip), vehicle: saline) 94 % of control.

As for `O=C(/C=C(/CC(=O)c1ccccc1)C(=O)c1ccccc1)c1ccccc1`, the T/C under setting [1] was 103 % of control, the T/C under setting [2] was 95 % of control and the T/C under setting [3] is 101 % of control.

Consider `O=C1C=C(c2ccccc2)C2(c3ccccc3)OC2O1` (centres undefined), for which the T/C under setting [4] was 109 % of control; the T/C under setting [1] is 98 % of control; the T/C under setting [5] is 100 % of control; the T/C under setting [2] was 98 % of control; the T/C under setting [6] was 98 % of control; the T/C under setting [3] is 98 % of control.

For the compound `CC1CC(=O)C(CCC#N)=C(Cl)C1` (centres undefined), the T/C by setting is: (dose: 50.0 mg/kg/injection, schedule: Q01DX009 (ip), vehicle: saline with Tween-80) 100 % of control; (dose: 100.0 mg/kg/injection, schedule: Q01DX009 (ip), vehicle: saline with Tween-80) 96 % of control; (dose: 200.0 mg/kg/injection, schedule: Q01DX009 (ip), vehicle: saline with Tween-80) 96 % of control.

With `CS(=O)C(Cl)C(O)c1ccccc1` (centres undefined), the T/C runs as follows: (dose: 100.0 mg/kg/injection, schedule: Q03DX002 (ip), vehicle: saline with Tween-80) 117 % of control; (dose: 400.0 mg/kg/injection, schedule: Q03DX002 (ip), vehicle: saline with Tween-80) 110 % of control.

Turning to `COc1cc2ccc(Cc3nccc4cc(OC)c(OC)cc34)cc2cc1OC`, the T/C is 91 % of control under setting [4]; 100 % of control under setting [1]; 106 % of control under setting [5]; 92 % of control under setting [2]; 101 % of control under setting [6]; 92 % of control under setting [3].

As to `O=C(COc1ccc(Cl)c(Cl)c1)NCCc1ccncc1`, the T/C was 103 % of control (dose: 50.0 mg/kg/injection, schedule: Q04DX002 (ip), vehicle: Klucel (hydroxypropylcellulose) (HPC)); 118 % of control under setting [7]; 111 % of control under setting [8].

Consider `CC1CCC(Oc2nc3c(c(=O)n(C)c(=O)n3C)n2C)CC1` (centres undefined), for which the T/C by setting is: (dose: 50.0 mg/kg/injection, schedule: Q01DX001 (ip), vehicle: other) 104 % of control and 100 % of control; (dose: 100.0 mg/kg/injection, schedule: Q01DX001 (ip), vehicle: other) 101 % of control and 103 % of control; (dose: 200.0 mg/kg/injection, schedule: Q01DX001 (ip), vehicle: other) 101 % of control and 92 % of control; (dose: 400.0 mg/kg/injection, schedule: Q01DX001 (ip), vehicle: other) 95 % of control.

In the case of `CCCCC(CC)COP(OCC(CC)CCCC)OCC(CC)CCCC` (centres undefined), the T/C by setting is: (dose: 100.0 mg/kg/injection, schedule: Q04DX003 (ip), vehicle: saline with Tween-80) 96 % of control; (dose: 200.0 mg/kg/injection, schedule: Q04DX003 (ip), vehicle: saline with Tween-80) 100 % of control; (dose: 400.0 mg/kg/injection, schedule: Q04DX003 (ip), vehicle: saline with Tween-80) 96 % of control.

Regarding `COC1C(COC(C)=O)OC(n2cnc3c(=S)nc[nH]c32)C1OC(C)=O` (centres undefined), the T/C is 114 % of control under setting [9]; 104 % of control under setting [10]; 111 % of control (dose: 400.0 mg/kg/injection, schedule: Q01DX001 (ip), vehicle: carboxymethylcellulose (CMC)).

With `Cc1cc(Cl)cc2sc(=S)[nH]c12`, the T/C is 96 % of control and 108 % of control under setting [4]; 110 % of control under setting [7]; 86 % of control and 92 % of control under setting [5]; 110 % of control under setting [8]; 87 % of control under setting [6]; 110 % of control (dose: 400.0 mg/kg/injection, schedule: Q04DX002 (ip), vehicle: Klucel (hydroxypropylcellulose) (HPC)).

Take `CCC1CCNCC1`: the T/C is 113 % of control (dose: 25.0 mg/kg/injection, schedule: Q01DX009 (ip), vehicle: saline) and 102 % of control (dose: 50.0 mg/kg/injection, schedule: Q01DX009 (ip), vehicle: saline).

For the compound `O=C(O)c1cc2cc(Cl)ccc2oc1=O`, the T/C reads like this: under setting [9], 92 % of control; under setting [10], 92 % of control.

Turning to `O=NN(CCCl)C(=O)N[C@@H]1CCCC[C@H]1O`, the T/C by setting is: (dose: 1.6 mg/kg/injection, schedule: Q01DX001 (ip), vehicle: saline with Tween-80) 106 % of control; (dose: 2.4 mg/kg/injection, schedule: Q01DX001 (ip), vehicle: saline with Tween-80) 116 % of control; (dose: 5.4 mg/kg/injection, schedule: Q01DX001 (ip), vehicle: saline with Tween-80) 183 % of control; (dose: 6.0 mg/kg/injection, schedule: Q01DX001 (ip), vehicle: saline with Tween-80) 302 % of control; (dose: 8.0 mg/kg/injection, schedule: Q01DX001 (ip), vehicle: saline with Tween-80) 441 % of control; (dose: 9.0 mg/kg/injection, schedule: Q01DX001 (ip), vehicle: saline with Tween-80) 492 % of control. The T/C reads like this: (dose: 12.0 mg/kg/injection, schedule: Q01DX001 (ip), vehicle: saline with Tween-80) 441 % of control and 468 % of control; (dose: 13.0 mg/kg/injection, schedule: Q01DX001 (ip), vehicle: saline with Tween-80) 505 % of control; (dose: 18.0 mg/kg/injection, schedule: Q01DX001 (ip), vehicle: saline with Tween-80) 441 % of control; (dose: 20.0 mg/kg/injection, schedule: Q01DX001 (ip), vehicle: saline with Tween-80) 505 % of control; (dose: 26.0 mg/kg/injection, schedule: Q01DX001 (ip), vehicle: saline with Tween-80) 166 % of control; (dose: 30.0 mg/kg/injection, schedule: Q01DX001 (ip), vehicle: saline with Tween-80) 195 % of control.

`CN(C)c1ccc(/C=C\c2cc(=O)[nH]c3ccccc23)cc1`: the T/C is 100 % of control (dose: 50.0 mg/kg/injection, schedule: Q01DX009 (ip), vehicle: Klucel (hydroxypropylcellulose) (HPC)); 102 % of control under setting [4]; 97 % of control under setting [5]; 97 % of control under setting [6].

Take `CCCC#CCOCC(O)CCl` (centres undefined): the T/C by setting is: (dose: 100.0 mg/kg/injection, schedule: Q01DX009 (ip), vehicle: saline sonified) 105 % of control; (dose: 100.0 mg/kg/injection, schedule: Q04DX003 (ip), vehicle: saline sonified) 91 % of control; (dose: 200.0 mg/kg/injection, schedule: Q01DX009 (ip), vehicle: saline sonified) 101 % of control; (dose: 200.0 mg/kg/injection, schedule: Q04DX003 (ip), vehicle: saline sonified) 94 % of control; (dose: 400.0 mg/kg/injection, schedule: Q01DX009 (ip), vehicle: saline sonified) 105 % of control; (dose: 400.0 mg/kg/injection, schedule: Q04DX003 (ip), vehicle: saline sonified) 94 % of control.
